According to patent US20230113539A1, “Traditional Chinese medicine for dispersing lung qi and detoxicating” (priority 2020, published 2023):
Where two headings read alike, the source gives them in different places.

Experiments:
[1] = tested on: human coronavirus (HCoV-229E); format: in vivo
[2] = tested on: inflammatory factors IL-6, IL-10, TNF-α, INF-γ in lung tissue; assay: Inflammatory factor content in lung tissue (ELISA), same mouse model; format: in vivo, BALB/c mice
From the text: (§1) 90 Balb/c mice are taken, SPF-grade, half male and half female, and the body weight is 10-12 g. They are randomly divided into a normal control group, a 229E infection group, a cold-damp control group, a disease-syndrome combination model group of epidemic viruses attacking lungs in mice (hereinafter referred to as an epidemic virus attacking lung model group), a chloroquine phosphate positive drug group, and an interferon α2b positive drug group, and high, medium and low dosage groups of the traditional Chinese medicine granules of the present invention, there are 10 mice in each group. Except for the normal control group and the 229E infection group, the other mice are continuously placed in an artificial climate box with a relative humidity of 90±3%, no wind, and a temperature of 4±2° C. every day, and are taken out after 4 hours of stimulation for 7 consecutive days.
(§2) Except for the normal control group and the cold-damp control group, the other mice are infected with 100 TCID50HCOV-229E virus droplets nasally at 50 μL/mice after mild anesthesia with ether on the 5-th and 6-th days of cold-damp stimulation. The administration of each administration group starts on the day of the first infection, and each dosage group of the traditional Chinese medicine granules of the present invention and the chloroquine phosphate positive drug group are administered by gavage at 0.2 ml/10 g; the normal control group, the cold-damp control group, the 229E infection group, the epidemic virus attacking lung model group are given with normal saline under the same conditions; the interferon α2b positive drug group is inhaled with the original drug solution by atomization, and each time is 20 min. It is administered once a day for 3 consecutive days. On the 4-th day of the infection, autopsy is performed after being weighed, and the following indicators are observed and detected.
(§3) 2.4.4 Detection of Gastrin (GAS), Motilin (MTL) in Mouse Serum and Inflammatory Factor in Lung Tissue (ELISA Method)
Lung tissue homogenate sample: after weighing the lung tissue from the mouse, the mouse lung tissue is collected and stored at […]. After weighing 50 mg of the lung tissue and adding 500 μL of normal saline, the tissue is homogenized with an ultrasonic cell disruptor, and centrifuged at […] at 1000 xg for 10 minutes with a lower-temperature high-speed centrifuge. After the supernatant is absorbed, it is separately packaged, and stored in the −80° C. refrigerator for later use. Repeated freezing and thawing is avoided. During the detection, it is operated according to the kit instructions, and the microplate reader detects each index at 450 nm of the absorbance.

[3] = tested on: peripheral blood T lymphocyte subset and B lymphocyte; assay: Flow cytometry of peripheral blood T lymphocyte subset and B lymphocyte proportion, same mouse model; format: in vivo, BALB/c mice
[4] = tested on: HCoV-229E nucleic acid; assay: Nucleic acid detection (viral load) in lung tissue (RT-PCR), same mouse model; format: in vivo, BALB/c mice
[5] = tested on: GAS, MTL in mouse serum; assay: Gastrin (GAS) and motilin (MTL) in mouse serum (ELISA), same mouse model; format: in vivo, BALB/c mice
From the text: as §1, §2, §3
After dissection, mouse […] is placed at a room temperature for 30 min, and centrifuged at 3000×g for 10 min, and a supernatant is absorbed into a new eppendorf (ep) tube and stored at −20° C. During the detection, it is operated according to kit instructions, and a microplate reader detects each index at 450 nm of the absorbance.

[6] = chloroquine phosphate Id: 0.18 g/kg/d, 2~3 d: 0.09 g/kg/d
[7] = chloroquine phosphate Id: 0.18 g/kg/d, 2~3: 0.09 g/kg/d
[8] = interferon α2b 300 million IU, 20 min

CCN(CC)CCCC(C)Nc1ccnc2cc(Cl)ccc12 (centres unmarked) [Chloroquine phosphate]
Inhibition rate % (of lung index) ([1]; chloroquine phosphate Id: 0.18 g/kg/d, 2-3: 0.09 g/kg/d): 9.82%
Lung index (Lung weight/100 g body weight) ([1]; chloroquine phosphate Id: 0.18 g/kg/d, 2-3: 0.09 g/kg/d, gavage): 0.85 ± 0.11
Inflammatory factor content in lung tissue IL-6 [2, 6]: 149.98 ± 29.37 pg/mL
Inflammatory factor content in lung tissue IL-10 [2, 6]: 52.54 ± 29.40 pg/mL
Inflammatory factor content in lung tissue INF-γ [2, 6]: 2.77 ± 3.48 pg/mL
Inflammatory factor content in lung tissue TNF-α [2, 6]: 38.33 ± 9.62 pg/mL
CD4+/CD8+ (peripheral blood) [3, 6]: 1.65 ± 0.23
Percentage of immune cells in peripheral blood B cell [3, 6]: 15.72 ± 2.24%
Percentage of immune cells in peripheral blood CD4+T cell [3, 6]: 32.47 ± 4.65%
Percentage of immune cells in peripheral blood CD8+T cell [3, 6]: 20.03 ± 3.68 %
Viral load (lung tissue) [4, 6]: 56027.66 ± 31638.92
Factor content in serum GAS [5, 7]: 8.75 ± 1.41 pg/mL
Factor content in serum MTL [5, 7]: 105.69 ± 16.85 pg/mL

Interferon α2b
Inhibition rate % (of lung index) ([1]; interferon α2b 3 million IU, 20 min): 40.38%
Lung index (Lung weight/100 g body weight) ([1]; interferon α2b 3 million IU, 20 min, atomization inhalation): 0.79 ± 0.11
Inflammatory factor content in lung tissue TNF-α [2, 8]: 33.86 ± 8.72 pg/mL
Inflammatory factor content in lung tissue IL-6 ([2]; interferon α2b, 20 min): 199.07 ± 38.37 pg/mL
Inflammatory factor content in lung tissue IL-10 ([2]; interferon α2b, 20 min): 102.25 ± 58.14 pg/mL
Inflammatory factor content in lung tissue INF-γ ([2]; interferon α2b, 20 min): 4.20 ± 3.39 pg/mL
CD4+/CD8+ (peripheral blood) [3, 8]: 1.92 ± 0.63
Percentage of immune cells in peripheral blood CD4+T cell [3, 8]: 35.17 ± 4.24%
Percentage of immune cells in peripheral blood CD8+T cell [3, 8]: 19.68 ± 4.53 %
Percentage of immune cells in peripheral blood B cell ([3]; interferon α2b, 20 min): 6.40 ± 0.98%
Viral load (lung tissue) [4, 8]: 63758.38 ± 17530.19
Factor content in serum GAS [5, 8]: 8.94 ± 1.07 pg/mL
Factor content in serum MTL [5, 8]: 115.43 ± 7.90 pg/mL
